# Values of other authors as cited in US20190290629A1, “NIRAPARIB SUSTAINED AND CONTROLLED RELEASE PHARMACEUTICAL COMPOSITION AND USE THEREOF” (priority 2016, published 2019).
# Read-outs that look alike come from different tables or passages of the source.
# How the values were obtained:
# [1] = not given; remark: listed apart in the source
# ovarian cancer = settings: orally once daily
# [2] = immediate release capsule, clinical studies
smiles,measurement,setting,value
"NC(=O)c1cccc2cn(-c3ccc([C@@H]4CCCNC4)cc3)nc12 [niraparib, (S)-2-(4-(piperidin-3-yl)phenyl)-2H-indazole-7-carboxamide]",steady-state blood concentration peak value,300 mg/time/day,about 4.4 μM
same,steady-state blood concentration trough value,300 mg/time/day,~2.0 µM
same,time at which steady-state blood concentration is reached,300 mg/time/day,12 to 14 days
same,oral bioavailability,"immediate release capsule of niraparib tosylate monohydrate, clinical studies",73%
same,blood concentration peak time,[2],3 h
same,effect of food on plasma exposure,[2],not affected by food
same,plasma half-life,[2],more than 30 hours
same,dose-limiting toxicity,[1]; clinical,thrombocytopenia and anemia
same,patients who discontinued the treatment due to toxic and side effects,[1]; clinical studies,15%
same,patients who reduced dose or stopped taking the drug due to toxic and side effects,[1]; clinical studies,69%
same,patients with 3-4 grade anemia,[1]; clinical studies,25%
same,patients with grade 3-4 platelet reduction,[1]; clinical studies,29%
same,patients with neutropenia,[1]; clinical studies,30%
same,median progression free survival time,"ovarian cancer; patients with ovarian cancer of BRCA gene mutation, after first chemotherapy",21 months
same,median progression free survival time,ovarian cancer; patients without BRCA gene mutations,9.3 months
